Data taken from BindingDB's records for doi:10.1111/j.1476-5381.1995.tb14977.x (Syntex Discovery Research, 1995).
“And” between values parts separate entries of the source, which are not always exact repeats. Equal values may be shown once.

Legend:
[1] = target: T1, 5-hydroxytryptamine receptor 2C (Homo sapiens, UniProt P28335)
T1 sequence (P28335 whole entry): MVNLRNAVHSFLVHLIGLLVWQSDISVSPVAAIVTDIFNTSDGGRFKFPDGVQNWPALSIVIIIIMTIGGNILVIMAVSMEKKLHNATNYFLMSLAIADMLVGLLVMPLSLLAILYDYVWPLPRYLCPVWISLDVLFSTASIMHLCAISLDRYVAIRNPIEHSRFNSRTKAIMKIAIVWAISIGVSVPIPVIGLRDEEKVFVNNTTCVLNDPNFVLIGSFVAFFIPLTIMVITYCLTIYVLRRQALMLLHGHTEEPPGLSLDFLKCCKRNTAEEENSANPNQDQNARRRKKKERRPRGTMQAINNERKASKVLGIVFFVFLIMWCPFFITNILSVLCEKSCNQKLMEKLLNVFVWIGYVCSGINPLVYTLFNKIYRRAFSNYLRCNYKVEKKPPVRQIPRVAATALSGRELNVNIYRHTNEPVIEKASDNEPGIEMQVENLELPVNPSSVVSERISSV

[2] = target: 5-hydroxytryptamine receptor 2B (Homo sapiens, UniProt P41595)
Sequence of 5-hydroxytryptamine receptor 2B (Homo sapiens, UniProt P41595) (P41595 whole entry): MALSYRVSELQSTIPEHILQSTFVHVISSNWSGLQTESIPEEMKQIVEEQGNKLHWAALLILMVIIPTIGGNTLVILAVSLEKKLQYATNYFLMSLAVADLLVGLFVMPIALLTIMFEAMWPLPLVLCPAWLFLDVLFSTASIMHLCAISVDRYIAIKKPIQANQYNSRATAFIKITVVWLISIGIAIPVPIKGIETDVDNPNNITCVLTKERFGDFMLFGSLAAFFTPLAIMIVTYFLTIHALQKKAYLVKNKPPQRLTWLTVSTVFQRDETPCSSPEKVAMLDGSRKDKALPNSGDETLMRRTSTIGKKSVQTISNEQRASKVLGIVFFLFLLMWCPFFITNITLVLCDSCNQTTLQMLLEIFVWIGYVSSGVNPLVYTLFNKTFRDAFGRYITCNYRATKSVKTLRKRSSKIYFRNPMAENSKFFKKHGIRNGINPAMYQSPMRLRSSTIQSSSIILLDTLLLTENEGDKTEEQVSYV

[3] = target: T2, 5-hydroxytryptamine receptor 2C (Rattus norvegicus, UniProt P08909)
T2 sequence (P08909 whole entry): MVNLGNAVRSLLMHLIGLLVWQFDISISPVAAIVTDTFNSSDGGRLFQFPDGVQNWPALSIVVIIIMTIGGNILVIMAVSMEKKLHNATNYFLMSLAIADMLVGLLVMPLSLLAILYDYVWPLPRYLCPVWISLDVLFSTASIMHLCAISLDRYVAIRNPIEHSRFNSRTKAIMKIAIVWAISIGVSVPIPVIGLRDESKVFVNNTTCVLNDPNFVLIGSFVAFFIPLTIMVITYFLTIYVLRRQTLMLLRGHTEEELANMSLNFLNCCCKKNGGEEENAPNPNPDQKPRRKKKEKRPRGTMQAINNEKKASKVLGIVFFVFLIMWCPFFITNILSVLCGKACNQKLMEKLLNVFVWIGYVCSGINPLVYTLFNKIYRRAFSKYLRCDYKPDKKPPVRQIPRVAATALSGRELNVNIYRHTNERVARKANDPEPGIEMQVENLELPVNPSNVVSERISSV

[4] = target: 5-hydroxytryptamine receptor 2B (Rattus norvegicus, UniProt P30994)
Sequence of 5-hydroxytryptamine receptor 2B (Rattus norvegicus, UniProt P30994) (P30994 whole entry): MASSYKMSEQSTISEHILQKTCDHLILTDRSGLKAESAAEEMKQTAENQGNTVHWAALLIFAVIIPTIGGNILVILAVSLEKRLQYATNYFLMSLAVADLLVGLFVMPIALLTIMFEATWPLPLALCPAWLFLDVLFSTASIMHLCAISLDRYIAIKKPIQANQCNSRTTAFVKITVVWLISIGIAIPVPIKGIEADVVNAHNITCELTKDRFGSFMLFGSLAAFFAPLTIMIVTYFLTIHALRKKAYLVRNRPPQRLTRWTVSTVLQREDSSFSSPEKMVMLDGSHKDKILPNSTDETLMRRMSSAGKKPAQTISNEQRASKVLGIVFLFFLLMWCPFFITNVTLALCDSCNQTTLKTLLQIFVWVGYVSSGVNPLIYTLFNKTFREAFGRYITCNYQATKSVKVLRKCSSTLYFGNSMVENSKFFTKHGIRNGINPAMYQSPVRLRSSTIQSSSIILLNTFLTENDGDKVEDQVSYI

Compound	Ki [1]	Ki [2]	Ki [3]	Ki [4]
Cc1nc2sccn2c(=O)c1CCN1CCC(=C(c2ccc(F)cc2)c2ccc(F)cc2)CC1	0.00025 µM	0.00501 µM	–	–
CC[C@@H](CO)NC(=O)[C@@H]1C=C2c3cccc4c3c(cn4C)C[C@H]2N(C)C1	0.00158 µM	–	0.00199 µM	–
O=C(c1ccc(F)cc1)C1CCN(CCn2c(=O)[nH]c3ccccc3c2=O)CC1 [3-(2-{4-[(4-fluorophenyl)carbonyl]piperidin-1-yl}ethyl)-1,2,3,4-tetrahydroquinazoline-2,4-dione]	–	–	0.0631 µM	3.98 µM
O=C(CCCN1CCC2(CC1)C(=O)NCN2c1ccccc1)c1ccc(F)cc1 [8-[4-(4-fluorophenyl)-4-oxidanylidene-butyl]-1-phenyl-1,3,8-triazaspiro[4.5]decan-4-one]	0.501 µM and 1 µM	1.58 µM	–	–
Cn1ccc2cc(NC(=O)Nc3cccnc3)ccc21 [SB 200646]	0.501 µM	0.631 µM	1 µM	–
Clc1cccc(N2CCNCC2)c1 [mCPP]	–	–	0.126 µM	0.0251 µM
COC(=O)[C@@H]1[C@H]2C[C@H]3c4[nH]c5ccccc5c4CCN3C[C@@H]2CC[C@@H]1O [yohimbic acid methyl ester]	–	–	> 10 µM	0.0501 µM
